Legend:
[1] = Inhibition of beta3 tubulin overexpressed in human HeLa cells after 48 hrs by SRB assay
[2] = Inhibition of p-gp overexpressed in human SKOV3/M6-6 isogenic cells after 48 hrs by sulforhodamine B assay

Compound | IC50 [1] [µM] | IC50 [2] [µM]
COc1ccc(N(C)c2nc(C)nc3c2CCC3)cc1 | 0.0082 | 0.016
COc1ccc(N(C)c2nc(C)nc3c2CC(C)C3)cc1 (stereo not given) | 0.024 | 0.044
COc1ccc(/C=C\c2cc(OC)c(OC)c(OC)c2)cc1O [combretastin A4] |  | 0.0066
